Data taken from US20250206727A1, “HETEROCYCLIC SUBSTITUTED AROMATIC COMPOUND, PREPARATION METHOD THEREFOR, HERBICIDAL COMPOSITION AND APPLICATION” (QINGDAO KINGAGROOT CHEMICAL COMPOUND CO., LTD., priority 2022, published 2025).

How the values were obtained:
Assay in all cases: Post-emergence test on weeds (greenhouse, spray at 2-3 leaf stage)
Assay type in all cases: in vivo
Design in all cases: key: Level 10: completely dead; Level 9: growth control rate greater than or equal to 90% and less than 100%; Level 8: growth control rate greater than or equal to 80% and less than 90%; Level 7: growth control rate greater than or equal to 70% and less than 80%; Level 6: growth control rate greater than or equal to 60% and less than 70%; Level 5: growth control rate greater than or equal to 50% and less than 60%; Level 4: growth control rate greater than or equal to 40% and less than 50%; Level 3: growth control rate greater than or equal to 30% and less than 40%; Level 2: growth control rate greater than or equal to 20% and less than 30%; Level 1: growth control rate less than 20%; Level 0: no effect
Conditions in all cases: 60 g a.i./ha, 3 weeks after application
Amaranthus retroflexus = system: Amaranthus retroflexus
Method in brief: (§1)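 Greenhouse pot-grown weeds were sprayed by spray tower at the 2-3 leaf stage, about two weeks after sowing, with acetone/Tween 80 solutions plus 1.5 L/ha methyl oleate EC synergist at 500, 250, […], 15 and 7.5 g a.i./ha. Fresh-weight growth control was scored 0-10 after 3 weeks, triplicate averaged.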

Digitaria sanguinalis = system: Digitaria sanguinalis
Method in brief: as §1

Setaria viridis = system: Setaria viridis
Method in brief: as §1

Abutilon theophrasti = system: Abutilon theophrasti
Method in brief: as §1

Echinochloa crus-galli = system: Echinochloa crus-galli
Method in brief: as §1

Veronica polita = system: Veronica polita
Method in brief: as §1

CC(=NOC(=O)C1(C)ON=C(c2cc(-c3ncc(C(F)(F)F)cc3Cl)c(F)cc2Cl)O1)C(F)(F)F (racemic) [Compound 139]
10: activity level (fresh weight growth control rate), Amaranthus retroflexus (Amaranthus retroflexus) | activity level (fresh weight growth control rate), Digitaria sanguinalis (Digitaria sanguinalis) | activity level (fresh weight growth control rate), Setaria viridis (Setaria viridis) | activity level (fresh weight growth control rate), Abutilon theophrasti (Abutilon theophrasti) | activity level (fresh weight growth control rate), Echinochloa crus-galli (Echinochloa crus-galli) | activity level (fresh weight growth control rate), Veronica polita (Veronica polita)

CCOC(=O)C1(C)ON=C(c2cc(-c3ncc(Cl)cc3Cl)c(F)cc2Cl)O1 (stereo not drawn) [Compound 40]
10: activity level (fresh weight growth control rate), Amaranthus retroflexus (Amaranthus retroflexus) | activity level (fresh weight growth control rate), Digitaria sanguinalis (Digitaria sanguinalis) | activity level (fresh weight growth control rate), Setaria viridis (Setaria viridis) | activity level (fresh weight growth control rate), Abutilon theophrasti (Abutilon theophrasti) | activity level (fresh weight growth control rate), Echinochloa crus-galli (Echinochloa crus-galli) | activity level (fresh weight growth control rate), Veronica polita (Veronica polita)

COC(=O)C1(C)ON=C(c2cc(-c3ncccc3Cl)c(F)cc2Cl)O1 (stereo not drawn) [Compound 8]
10: activity level (fresh weight growth control rate), Amaranthus retroflexus (Amaranthus retroflexus) | activity level (fresh weight growth control rate), Digitaria sanguinalis (Digitaria sanguinalis) | activity level (fresh weight growth control rate), Setaria viridis (Setaria viridis) | activity level (fresh weight growth control rate), Abutilon theophrasti (Abutilon theophrasti) | activity level (fresh weight growth control rate), Echinochloa crus-galli (Echinochloa crus-galli) | activity level (fresh weight growth control rate), Veronica polita (Veronica polita)

CCOC(=O)C1(CC)ON=C(c2cc(-c3ncc(C(F)(F)F)cc3F)c(F)cc2Cl)O1 (stereo not drawn) [Compound 58]
10: activity level (fresh weight growth control rate), Amaranthus retroflexus (Amaranthus retroflexus) | activity level (fresh weight growth control rate), Digitaria sanguinalis (Digitaria sanguinalis) | activity level (fresh weight growth control rate), Setaria viridis (Setaria viridis) | activity level (fresh weight growth control rate), Abutilon theophrasti (Abutilon theophrasti) | activity level (fresh weight growth control rate), Echinochloa crus-galli (Echinochloa crus-galli) | activity level (fresh weight growth control rate), Veronica polita (Veronica polita)
